Reference: PubChem BioAssay AID2060492 (Molecular Pharmacology Branch, DTP, NCI, 2025)
pIC50: −log10 of the molar value.

Test system: 695427-040-R-J1-PDC complex spheroids, viability percent T/C
Test: Anticancer human tumor 695427-040-R-J1-PDC patient-derived colon adenocarcinoma cell line growth inhibition [GQUAD]
Conditions: for pIC50: curve of first compound; for viability, T/C: stronger effect = lower value; active = viability on the fitted dose curve at most 10% of control; inactive = the rest
Source text: DNA G-quadruplex Stabilizer Agents in Combinations in Complex Spheroids
A high-throughput screen of multi-cell type tumor spheroids was designed to identify active combinations of DNA G-quadruplex stabilizer agents and targeted small molecules. Complex spheroids include a stromal component modeled by human endothelial cells (HUVEC) and fibroblasts modeled by human mesenchymal stem cells (MSCs). The concentration ranges selected for each drug and investigational agent were based upon clinically achievable concentrations if the clinical Cmax of the agent was known.
Compounds. The drugs and investigational agents: pidnarulex (CX-5461; NSC782164), APTO-253 (NSC789042), BRACO-19 (NSC847499), peposertib (NSC802822), ceralasertib (NSC780249), elimusertib (NSC800525), camonsertib (NSC841442), AZD-1390 (NSC803789), olaparib (NSC753686), talazoparib (NSC767125), ART-558 (NSC835418), sotorasib (NSC818433), MRTX-1133 (NSC836407), SN-38 (NSC673596), topotecan (NSC609699), etoposide (NSC141540), doxorubicin (NSC123127), gemcitabine (NSC613327), 5-fluorouracil (NSC19893), paclitaxel (NSC125973), vemurafenib (NSC761431), panobinostat (NSC761190), R-306465 (JNJ-16241199; NSC773264), adavosertib (NSC754352), TP-3654 (NSC805149), carboplatin (NSC241240), KSQ-4279 (NSC840948), and staurosporine (NSC755774) were obtained from the National Cancer Institute (NCI) Developmental Therapeutics Program Chemical Repository (34). The FDA-approved anticancer drug set is available from the NCI Developmental Therapeutics Program. […] The stock solutions were prepared in dimethyl sulfoxide (DMSO, Sigma-Aldrich, St. Louis, MO, cat. D2650) at 800-fold the tested concentration and stored at -70 degrees C prior to their use. All drugs and investigational agents were tested over a range starting from a high concentration at or near the clinical Cmax and decreasing in half-log increments. If the clinical Cmax for an agent had not been determined, the highest concentration tested was 10 microM.
2.3 Cell Culture. All cells were maintained in an incubator at 37 degrees C and 5% CO2 with 95% humidity. The PDC lines were cultured according to standard operating procedures established by the NCI PDMR. All PDCs were thawed and cultured in Matrigel-coated flasks prepared with a working solution of 1X Ham's F-12 nutrient mix, without supplementation (Invitrogen, cat. 11765054), 100 U/mL penicillin-streptomycin (Invitrogen, cat. 15140122), and 2.5% Matrigel (Corning Inc., cat. 354248) for the first three passages. The 857933-349-R-J2-PDC line was cultured in 6C/Colon 1B media, which includes advanced DMEM/F-12 (Thermo Fisher Scientific, cat. 12634028), 10 mM HEPES (Thermo Fisher Scientific, cat. 15630080), 1X GlutaMAX supplement (Thermo Fisher Scientific, cat. 35050061), 0.1 mg/mL primocin (InvivoGen, cat. ant-pm-2), 10% defined fetal bovine serum, heat inactivated (HyClone Laboratories Inc., cat. SH30070.03HI), 50% L-WRN conditioned media (ATCC, cat. CRL-3276), 1.25 mM N-Acetyl-L-cysteine (Sigma-Aldrich, cat. A9165), 10 mM nicotinamide (Sigma-Aldrich, cat. N0636), 1X B-27 supplement (Thermo Fisher Scientific, cat. 17504044), 1X N-2 supplement (Thermo Fisher Scientific, cat. 17502048), 10 microM Y-27632 dihydrochloride (Tocris Bioscience, cat. 1254), and 50 ng/mL human EGF recombinant protein (Thermo Fisher Scientific, cat. PHG0311). The 485176-168-R4-J1-PDC line was cultured in Panc media, which includes all 6C/Colon 1B media components plus 100 ng/mL human FGF-10 (Thermo Fisher Scientific, cat. 100-26), 500 nM SB-431542 (Selleckchem, cat. S1067), and gastrin (Tocris, cat. 3006).
[…]

[1] = second compound 0.0316 µM, first compound 0.0316 µM
[2] = second compound 0.0316 µM, first compound 0.316 µM
[3] = second compound 0.1 µM, first compound 0.0316 µM
[4] = second compound 0.1 µM, first compound 0.316 µM
[5] = second compound 0.316 µM, first compound 0.0316 µM
[6] = second compound 0.316 µM, first compound 0.316 µM
[7] = second compound 1 µM, first compound 0.0316 µM
[8] = second compound 1 µM, first compound 0.316 µM
[9] = second compound 3.16 µM, first compound 0.0316 µM
[10] = second compound 3.16 µM, first compound 0.316 µM
[11] = second compound 10 µM, first compound 0.0316 µM
[12] = second compound 10 µM, first compound 0.316 µM
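Also: spheroids exposed to compounds for seven days before readout.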

Cc1cccc(N(C)C(=O)C2C(O)CCN2c2nc(C)cc(C(F)(F)F)c2C#N)c1 (centres undefined) + CN(C)c1ccc(Nc2c3ccc(NC(=O)CCN4CCCC4)cc3nc3cc(NC(=O)CCN4CCCC4)ccc23)cc1
inactive: viability, T/C [1] 111% | viability, T/C (second compound 0.0316 µM, first compound 0.1 µM) 103% | viability, T/C [2] 106% | viability, T/C (second compound 0.0316 µM, first compound 1 µM) 99.9% | viability, T/C (second compound 0.0316 µM, first compound 3.16 µM) 107% | viability, T/C (second compound 0.0316 µM, first compound 10 µM) 90.3% | viability, T/C [3] 110% | viability, T/C (second compound 0.1 µM, first compound 0.1 µM) 92.3% | viability, T/C [4] 106% | viability, T/C (second compound 0.1 µM, first compound 1 µM) 102% | viability, T/C (second compound 0.1 µM, first compound 3.16 µM) 101% | viability, T/C (second compound 0.1 µM, first compound 10 µM) 95.6% | viability, T/C [5] 110% | viability, T/C (second compound 0.316 µM, first compound 0.1 µM) 101% | viability, T/C [6] 97.3% | viability, T/C (second compound 0.316 µM, first compound 1 µM) 98.2% | viability, T/C (second compound 0.316 µM, first compound 3.16 µM) 107% | viability, T/C (second compound 0.316 µM, first compound 10 µM) 103% | viability, T/C [7] 104% | viability, T/C (second compound 1 µM, first compound 0.1 µM) 90.7% | viability, T/C [8] 98.3% | viability, T/C (second compound 1 µM, first compound 1 µM) 96.1% | viability, T/C (second compound 1 µM, first compound 3.16 µM) 104% | viability, T/C (second compound 1 µM, first compound 10 µM) 101% | viability, T/C [9] 93.6% | viability, T/C (second compound 3.16 µM, first compound 0.1 µM) 94.6% | viability, T/C [10] 95.4% | viability, T/C (second compound 3.16 µM, first compound 1 µM) 95.6% | viability, T/C (second compound 3.16 µM, first compound 3.16 µM) 106% | viability, T/C (second compound 3.16 µM, first compound 10 µM) 93.9% | viability, T/C [11] 81% | viability, T/C (second compound 10 µM, first compound 0.1 µM) 86.6% | viability, T/C [12] 88.9% | viability, T/C (second compound 10 µM, first compound 1 µM) 78.8% | viability, T/C (second compound 10 µM, first compound 3.16 µM) 91.2% | viability, T/C (second compound 10 µM, first compound 10 µM) 85.8%
< 5.00: pIC50 (second compound 0.0316 µM) | pIC50 (second compound 0.1 µM) | pIC50 (second compound 0.316 µM) | pIC50 (second compound 1 µM) | pIC50 (second compound 3.16 µM) | pIC50 (second compound 10 µM)

Cn1ncnc1[C@H]1c2n[nH]c(=O)c3cc(F)cc(c23)N[C@@H]1c1ccc(F)cc1 + CN(C)c1ccc(Nc2c3ccc(NC(=O)CCN4CCCC4)cc3nc3cc(NC(=O)CCN4CCCC4)ccc23)cc1
< 6.50: pIC50 (second compound 0.0316 µM) | pIC50 (second compound 0.1 µM) | pIC50 (second compound 0.316 µM) | pIC50 (second compound 1 µM) | pIC50 (second compound 3.16 µM) | pIC50 (second compound 10 µM)
inactive: viability, T/C (second compound 0.0316 µM, first compound 0.000999 µM) 102% | viability, T/C (second compound 0.0316 µM, first compound 0.00316 µM) 92.9% | viability, T/C (second compound 0.0316 µM, first compound 0.00999 µM) 101% | viability, T/C [1] 103% | viability, T/C (second compound 0.0316 µM, first compound 0.0999 µM) 100% | viability, T/C [2] 93% | viability, T/C (second compound 0.1 µM, first compound 0.000999 µM) 112% | viability, T/C (second compound 0.1 µM, first compound 0.00316 µM) 89.1% | viability, T/C (second compound 0.1 µM, first compound 0.00999 µM) 95.7% | viability, T/C [3] 92.8% | viability, T/C (second compound 0.1 µM, first compound 0.0999 µM) 93.5% | viability, T/C [4] 97.5% | viability, T/C (second compound 0.316 µM, first compound 0.000999 µM) 88.2% | viability, T/C (second compound 0.316 µM, first compound 0.00316 µM) 95.8% | viability, T/C (second compound 0.316 µM, first compound 0.00999 µM) 99.5% | viability, T/C [5] 96.6% | viability, T/C (second compound 0.316 µM, first compound 0.0999 µM) 90.9% | viability, T/C [6] 91.2% | viability, T/C (second compound 1 µM, first compound 0.000999 µM) 105% | viability, T/C (second compound 1 µM, first compound 0.00316 µM) 97.8% | viability, T/C (second compound 1 µM, first compound 0.00999 µM) 91.5% | viability, T/C [7] 104% | viability, T/C (second compound 1 µM, first compound 0.0999 µM) 101% | viability, T/C [8] 87.3% | viability, T/C (second compound 3.16 µM, first compound 0.000999 µM) 99.6% | viability, T/C (second compound 3.16 µM, first compound 0.00316 µM) 94.7% | viability, T/C (second compound 3.16 µM, first compound 0.00999 µM) 88.8% | viability, T/C [9] 94.2% | viability, T/C (second compound 3.16 µM, first compound 0.0999 µM) 95% | viability, T/C [10] 93.4% | viability, T/C (second compound 10 µM, first compound 0.000999 µM) 93.3% | viability, T/C (second compound 10 µM, first compound 0.00316 µM) 89.8% | viability, T/C (second compound 10 µM, first compound 0.00999 µM) 77.3% | viability, T/C [11] 86.2% | viability, T/C (second compound 10 µM, first compound 0.0999 µM) 96.4% | viability, T/C [12] 90.1%
